Laboratory results published in patent publication US20260248720A1, “COMPOSITIONS SUITABLE FOR THE ADMINISTRATION OF CREATINE ESTERS” (priority 2023, published 2026).

Assay: Chemical stability of DCE in the particulate emulsion (HPLC/UV)
Format: physicochemical
Procedure: The chemical stability of DCE in the particulate emulsion was monitored using an HPLC/UV method at 4° C. and at room temperature.

[1] = extrapolation with the slope of the decay

Compound: CCCCCCCCCCCCOC(=O)CN(C)C(=N)N [DCE, dodecyl creatine ester]
- Calculation of remaining content (%) after 1 month of storage at room temperature [1]: 99%
- Estimation of remaining content after 18 months of storage at 4° C. [1]: more than 95%
- Period over which DCE is stable (storage at room temperature (20-25° C.)): more than 20 days
- Period over which DCE is stable (storage in the fridge (4° C.)): more than 3 months
